Assay results published in patent US9862713B2, “Substituted bicyclic heteroaryl compounds as RXR agonists” (CONNEXIOS LIFE SCIENCES PVT. LTD., priority 2014, dated 2018).

System: hRXR α, β, or γ
Assay: Transactivation assay (RARE-Luc dual luciferase reporter in HEK-293 cells), activity relative to LG268
Assay type: cell-based, human
Details: 24 h, luciferase activity expressed relative to LG268; for Activity at 1 µM: compound at 1 µM; for Activity at 300 nM: compound at 300 nM
Description: HEK-293 cells (ATCC) were seeded one day prior to transfection. For assessing EC50 of activation of RXR isoforms 2 μg of hRXR α, β, or γ (OriGENE, USA) over-expressing vector, 1 μg of plasmid expressing firefly luciferase under RARE element (RARE-Luc) and 25 ng of renilla luciferase vector (QIAGEN, USA) were co-transfected using lipofectamine reagent. Post 24 h of transfection, cells were treated with different concentrations of RXR agonists (100 nM, 300 nM and 1 uM) for 24 h followed by estimation of luciferase activity using Dual Luciferase Reporter Assay System (Promega). Luciferase activity was normalized to that of renilla luciferase. The activities of the RXR compounds were expressed relative to LG268, a known RXR agonist.

| Compound | Activity at 1 µM | Activity at 300 nM |
| --- | --- | --- |
| CCN(c1ccc(C(=O)O)cc1)c1cc2c(s1)C(C)(C)CCC2(C)C [Compound 27, 4-[Ethyl(4,4,7,7-tetramethyl-4,5,6,7-tetrahydro-1-benzothiophen-2-yl)amino]benzoic acid] | ***** (>1) |  |
| Cc1c(-n2nnc3cc(C(=O)O)ccc32)sc2c1C(C)(C)CCC2(C)C [Compound 28, 1-(3,4,4,7,7-Pentamethyl-4,5,6,7-tetrahydro-1-benzothiophen-2-yl)-1H-benzotriazole-5-carboxylic acid] | * (<0.7) |  |
| Cc1c(/C=C/c2ccc(C(=O)O)cc2)sc2c1C(C)(C)CCC2(C)C [Compound 29, 4-[(E)-2-(3,4,4,7,7-Pentamethyl-4,5,6,7-tetrahydro-1-benzothiophen-2-yl)ethenyl]benzoic acid] | ***** (>1) |  |
| Cc1c(/C=C\c2ccc(C(=O)O)cc2)sc2c1C(C)(C)CCC2(C)C [Compound 30, 4-[(Z)-2-(3,4,4,7,7-Pentamethyl-4,5,6,7-tetrahydro-1-benzothiophen-2-yl)ethenyl]benzoic acid] | ***** (>1) |  |
| Cc1c(C2CC2c2ccc(C(=O)O)cc2)sc2c1C(C)(C)CCC2(C)C (centres unmarked) [Compound 31, 4-[2-(3,4,4,7,7-Pentamethyl-4,5,6,7-tetrahydro-1-benzothiophen-2-yl)cyclopropyl]benzoic acid] | ** (>0.7 and <0.8) |  |
| CCn1c(-c2ccc(C(=O)O)cc2)ccc1-c1sc2c(c1C)C(C)(C)CCC2(C)C [Compound 32, 4-[1-Ethyl-5-(3,4,4,7,7-pentamethyl-4,5,6,7-tetrahydro-1-benzothiophen-2-yl)-1H-pyrrol-2-yl]benzoic acid] | * (<0.7) |  |
| CN(c1ccc(C(=O)O)cc1)c1nc2c(s1)C(C)(C)CCC2(C)C [Compound 33, 4-[Methyl(4,4,7,7-tetramethyl-4,5,6,7-tetrahydro-1,3-benzothiazol-2-yl)amino]benzoic acid] | *** (>0.8 and <0.9) |  |
| CN(c1ccc(C(=O)O)cc1)c1nc2c(s1)C(C)(C)C=CC2(C)C [Compound 34, 4-[Methyl(4,4,7,7-tetramethyl-4,7-dihydro-1,3-benzothiazol-2-yl)amino]benzoic acid] | ** (>0.7 and <0.8) |  |
| CCOC1CC(C)(C)c2sc(N(C)c3ccc(C(=O)O)cc3)nc2C1(C)C (centres unmarked) [Compound 35, 4-[(5-Ethoxy-4,4,7,7-tetramethyl-4,5,6,7-tetrahydro-1,3-benzothiazol-2-yl)(methyl)amino]benzoic acid] | *** (>0.8 and <0.9) |  |
| CC1(C)CCC(C)(C)c2sc(N(c3ccc(C(=O)O)cc3)C3CC3)nc21 [Compound 36, 4-[Cyclopropyl(4,4,7,7-tetramethyl-4,5,6,7-tetrahydro-1,3-benzothiazol-2-yl)amino]benzoic acid] | ***** (>1) |  |
| CC1(C)CCC(C)(C)c2sc(N(c3ccc(C(=O)O)cn3)C3CC3)nc21 [Compound 37, 6-[Cyclopropyl(4,4,7,7-tetramethyl-4,5,6,7-tetrahydro-1,3-benzothiazol-2-yl)amino]pyridine-3-carboxylic acid] | ***** (>1) |  |
| CC1(C)CCC(C)(C)c2sc(N(CC3CC3)c3ccc(C(=O)O)cc3)nc21 [Compound 38, 4-[(Cyclopropylmethyl) (4,4,7,7-tetramethyl-4,5,6,7-tetrahydro-1,3-benzothiazol-2-yl)amino]benzoic acid] | *** (>0.8 and <0.9) |  |
| CCN(c1ccc(C(=O)O)cn1)c1nc2c(s1)C(C)(C)CCC2(C)C [Compound 39, 6-[Ethyl(4,4,7,7-tetramethyl-4,5,6,7-tetrahydro-1,3-benzothiazol-2-yl)amino]pyridine-3-carboxylic acid] | ***** (>1) |  |
| CCN(c1ccc(C(=O)O)cn1)c1nc2c(s1)C(C)(C)CC(=O)C2(C)C [Compound 41, 6-[Ethyl(4,4,7,7-tetramethyl-5-oxo-4,5,6,7-tetrahydro-1,3-benzothiazol-2-yl)amino]pyridine-3-carboxylic acid] | * (<0.7) |  |
| CCN(c1ncc(C(=O)O)cn1)c1nc2c(s1)C(C)(C)CCC2(C)C [Compound 42, 2-[Ethyl(4,4,7,7-tetramethyl-4,5,6,7-tetrahydro-1,3-benzothiazol-2-yl)amino]pyrimidine-5-carboxylic acid] | ** (>0.7 and <0.8) |  |
| CC1(C)CCC(C)(C)c2sc(N(CC3CC3)c3ncc(C(=O)O)cn3)nc21 [Compound 43, 2-[(Cyclopropylmethyl) (4,4,7,7-tetramethyl-4,5,6,7-tetrahydro-1,3-benzothiazol-2-yl)amino]pyrimidine-5-carboxylic acid] | * (<0.7) |  |
| Cc1nc2cc(C(=O)O)ccc2n1-c1nc2c(s1)C(C)(C)CCC2(C)C [Compound 44, 2-Methyl-1-(4,4,7,7-tetramethyl-4,5,6,7-tetrahydro-1,3-benzothiazol-2-yl)-1H-benzimidazole-5-carboxylic acid] | * (<0.7) |  |
| CC1(C)CCC(C)(C)c2sc(-n3nnc4cc(C(=O)O)ccc43)nc21 [Compound 45, 1-(4,4,7,7-Tetramethyl-4,5,6,7-tetrahydro-1,3-benzothiazol-2-yl)-1H-benzotriazole-5-carboxylic acid] | * (<0.7) |  |
| CC1(C)CCC(C)(C)c2sc(Oc3ccc(C(=O)O)cc3)nc21 [Compound 46, 4-[(4,4,7,7-Tetramethyl-4,5,6,7-tetrahydro-1,3-benzothiazol-2-yl)oxy]benzoic acid] | * (<0.7) | ** (>0.3 and <0.4) |
| CC1(C)CCC(C)(C)c2sc(C(=O)c3ccc(C(=O)O)cc3)nc21 [Compound 47, 4-[(4,4,7,7-Tetramethyl-4,5,6,7-tetrahydro-1,3-benzothiazol-2-yl)carbonyl]benzoic acid] | * (<0.7) |  |
| CC1(C)CCC(C)(C)c2sc(/C=C/c3ccc(C(=O)O)cc3)nc21 [Compound 48, 4-[(E)-2-(4,4,7,7-Tetramethyl-4,5,6,7-tetrahydro-1,3-benzothiazol-2-yl)ethenyl]benzoic acid] | * (<0.7) |  |
| CC1(C)CCC(C)(C)c2sc(/C=C\c3ccc(C(=O)O)cc3)nc21 [Compound 49, 4-[(Z)-2-(4,4,7,7-Tetramethyl-4,5,6,7-tetrahydro-1,3-benzothiazol-2-yl)ethenyl]benzoic acid] | ***** (>1) |  |
| CC1(C)CCC(C)(C)c2sc(/C=C/c3ccc(C(=O)O)cn3)nc21 [Compound 50, 6-[(E)-2-(4,4,7,7-Tetramethyl-4,5,6,7-tetrahydro-1,3-benzothiazol-2-yl)ethenyl]pyridine-3-carboxylic acid] | * (<0.7) |  |
| Cc1c(N(CC(C)C)c2ccc(C(=O)O)c([N+](=O)[O-])c2)sc2c1C(C)(C)CCC2(C)C [Compound 51, 4-[(2-methylpropyl) (3,4,4,7,7-pentamethyl-4,5,6,7-tetrahydro-1-benzothiophen-2-yl)amino]-2-nitrobenzoic acid] |  | ***** (>0.6) |
| CC1(C)CC(=O)C(C)(C)c2nc(N(CC3CC3)c3ccc(C(=O)O)cn3)sc21 [Compound 52, 6-[(cyclopropylmethyl) (4,4,7,7-tetramethyl-5-oxo-4,5,6,7-tetrahydro-1,3-benzothiazol-2-yl)amino]pyridine-3-carboxylic acid] |  | ***** (>0.6) |
